# What was measured:
# [1] = tested on: ENR+CD organoids (ISC to Paneth cell differentiation); experiment: Primary screen: basal (non-stimulated) lysozyme secretion LYZ.NS, 2.5-D 384-well ENR+CD organoid differentiation; assay type: cell-based, mouse
# Source text: (§1) High-throughput screening.
# [2] = tested on: ENR+CD organoids (ISC to Paneth cell differentiation); experiment: Primary screen: CCh-stimulated lysozyme secretion LYZ.S, 2.5-D 384-well ENR+CD organoid differentiation; assay type: cell-based, mouse; settings: primary screen
# Source text: as §1
# [3] = tested on: ENR+CD organoids; experiment: Primary screen: ATP (CellTiter-Glo 3D, CTG) cell number/viability, 2.5-D 384-well ENR+CD organoids;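 note: compounds given at plating and again on day 3 over a 6-day differentiation from ENR+CV stem-cell-enriched precursors, ATP measured on day 6, plate median as control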
# [4] = primary screen, standard z score, dose 0.08 uM
# [5] = primary screen, standard z score, dose 0.40 uM
# [6] = primary screen, standard z score, dose 2.00 uM
# [7] = primary screen, standard z score, dose 10.00 uM
# [8] = primary screen, dose 0.08 uM, standard z score
# [9] = primary screen, dose 0.40 uM, standard z score
# [10] = primary screen, dose 2.00 uM, standard z score
# [11] = primary screen, dose 10.00 uM, standard z score
# [12] = primary screen; dose 0.08 uM; FC vs plate median
# [13] = primary screen; dose 0.40 uM; FC vs plate median
# [14] = primary screen; dose 2.00 uM; FC vs plate median
# [15] = primary screen; dose 10.00 uM; FC vs plate median
Compound,"Z.LYZ.NS (standard z score) ([1]; primary screen, dose 0.08 uM)","Z.LYZ.NS (standard z score) ([1]; primary screen, dose 0.40 uM)","Z.LYZ.NS (standard z score) ([1]; primary screen, dose 2.00 uM)","Z.LYZ.NS (standard z score) ([1]; primary screen, dose 10.00 uM)",Dose.FC.LYZ.S (log2 fold change) ([2]; dose 0.08 uM),Dose.FC.LYZ.S (log2 fold change) ([2]; dose 0.40 uM),Dose.FC.LYZ.S (log2 fold change) ([2]; dose 10.00 uM),"Z.CTG (standard z score) ([3]; primary screen, dose 0.08 uM)","Z.CTG (standard z score) ([3]; primary screen, dose 0.40 uM)","Z.CTG (standard z score) ([3]; primary screen, dose 2.00 uM)","Z.CTG (standard z score) ([3]; primary screen, dose 10.00 uM)","Dose.FC.LYZ.NS ([1]; primary screen, dose 0.08 uM)","Dose.FC.LYZ.NS ([1]; primary screen, dose 0.40 uM)","Dose.FC.LYZ.NS ([1]; primary screen, dose 2.00 uM)","Dose.FC.LYZ.NS ([1]; primary screen, dose 10.00 uM)",Dose.FC.LYZ.S ([2]; dose 0.08 uM),Dose.FC.LYZ.S ([2]; dose 0.40 uM),Dose.FC.LYZ.S ([2]; dose 2.00 uM),Dose.FC.LYZ.S ([2]; dose 10.00 uM),"Dose.FC.CTG ([3]; primary screen, dose 0.08 uM)",further results
O=C(c1ccc(Nc2nccc(-c3cc4ccccc4s3)n2)cc1)N1CCC(N2CCCC2)CC1 [IKK-16 (IKK Inhibitor VII)],0.903,0.176,−0.708,−2.531,0.092,0.028,−0.383,0.139,−0.122,−1.029,−2.268,,,,,,,,,,"Dose.FC.LYZ.NS (log2 fold change) ([1]; primary screen, dose 0.08 uM): 0.104; Dose.FC.LYZ.NS (log2 fold change) ([1]; primary screen, dose 0.40 uM): 0.020; Dose.FC.LYZ.NS (log2 fold change) ([1]; primary screen, dose 2.00 uM): −0.081; Dose.FC.LYZ.NS (log2 fold change) ([1]; primary screen, dose 10.00 uM): −0.291; Dose.FC.LYZ.S (log2 fold change) ([2]; dose 2.00 uM): −0.142; Dose.FC.CTG (log2 fold change) ([3]; primary screen, dose 0.08 uM): 0.058; Dose.FC.CTG (log2 fold change) ([3]; primary screen, dose 0.40 uM): −0.051; Dose.FC.CTG (log2 fold change) ([3]; primary screen, dose 2.00 uM): −0.431; Dose.FC.CTG (log2 fold change) ([3]; primary screen, dose 10.00 uM): −0.950"
"COc1cc2c(cc1Cc1cccc(Cl)c1F)c(=O)c(C(=O)O)cn2[C@H](CO)C(C)C [Elvitegravir (GS-9137, JTK-303)]",,,,,,,,,,,,−0.047 log2 fold change,−0.069 log2 fold change,−0.094 log2 fold change,−0.090 log2 fold change,−0.010 log2 fold change,0.092 log2 fold change,−0.126 log2 fold change,−0.135 log2 fold change,−0.001 log2 fold change,"Z.LYZ.NS [1, 4]: −0.412; Z.LYZ.NS [1, 5]: −0.598; Z.LYZ.NS [1, 6]: −0.821; Z.LYZ.NS [1, 7]: −0.782; Dose.FC.CTG ([3]; primary screen, dose 0.40 uM): −0.040 log2 fold change; Dose.FC.CTG ([3]; primary screen, dose 2.00 uM): −0.344 log2 fold change; Dose.FC.CTG ([3]; primary screen, dose 10.00 uM): −0.737 log2 fold change; Z.CTG [3, 4]: −0.001; Z.CTG [3, 5]: −0.095; Z.CTG [3, 6]: −0.823; Z.CTG [3, 7]: −1.760"
C=CCc1cccc(/C=N/NC(=O)CN2CCN(Cc3ccccc3)CC2)c1O [PAC-1],,,,,,,,,,,,,,,,,,,,,"Z.LYZ.NS [1, 8]: 1.365; Z.LYZ.NS [1, 9]: 0.457; Z.LYZ.NS [1, 10]: 1.094; Z.LYZ.NS [1, 11]: 0.596; Dose.FC.LYZ.NS [1, 12]: 0.157 log2 fold change; Dose.FC.LYZ.NS [1, 13]: 0.053 log2 fold change; Dose.FC.LYZ.NS [1, 14]: 0.126 log2 fold change; Dose.FC.LYZ.NS [1, 15]: 0.068 log2 fold change; Dose.FC.LYZ.S ([2]; dose 0.08 uM, FC vs plate median): 0.128 log2 fold change; Dose.FC.LYZ.S ([2]; dose 0.40 uM, FC vs plate median): 0.059 log2 fold change; Dose.FC.LYZ.S ([2]; dose 2.00 uM, FC vs plate median): −0.006 log2 fold change; Dose.FC.LYZ.S ([2]; dose 10.00 uM, FC vs plate median): 0.092 log2 fold change; Z.CTG [3, 8]: 0.228; Z.CTG [3, 9]: 0.270; Z.CTG [3, 10]: −0.576; Z.CTG [3, 11]: 0.004; Dose.FC.CTG [3, 12]: 0.095 log2 fold change; Dose.FC.CTG [3, 13]: 0.113 log2 fold change; Dose.FC.CTG [3, 14]: −0.241 log2 fold change; Dose.FC.CTG [3, 15]: 0.002 log2 fold change"
C=CC(=O)N1CCC[C@@H](n2nc(-c3ccc(Oc4ccccc4)cc3)c3c(N)ncnc32)C1 [Ibrutinib (PCI-32765)],−0.619,−1.225,−1.763,−1.737,−0.139,−0.206,−0.312,−0.065,−1.112,−1.244,−2.224,,,,,,,,,,
CCOC(=O)N1c2ccc(C(F)(F)F)cc2[C@@H](N(Cc2cc(C(F)(F)F)cc(C(F)(F)F)c2)C(=O)OC)C[C@H]1CC [Torcetrapib],0.991,−0.546,−1.185,−0.108,,,,,,,,0.114 log2 fold change,−0.063 log2 fold change,−0.136 log2 fold change,−0.012 log2 fold change,0.320 log2 fold change,0.045 log2 fold change,−0.098 log2 fold change,−0.056 log2 fold change,0.283 log2 fold change,"Dose.FC.CTG ([3]; primary screen, dose 0.40 uM): 0.061 log2 fold change; Dose.FC.CTG ([3]; primary screen, dose 2.00 uM): −0.121 log2 fold change; Dose.FC.CTG ([3]; primary screen, dose 10.00 uM): −0.151 log2 fold change"

# — patent US20220323406A1, “METHODS AND COMPOSITIONS FOR DIFFERENTIATING STEM CELLS” (Massachusetts Institute of Technology, priority 2019, published 2022)
